{
  "source": "patent US11389471B2",
  "about": "“Systems and methods to improve organ or tissue function and organ or tissue transplant longevity” (Proterris Inc., priority 2014, dated 2022)",
  "origin": "cited, not measured here",
  "conditions": "CO alveolar concentration of 25 ppm; CFK equation",
  "data": [
    {"smiles": "[C-]#[O+]", "note": "[CO, carbon monoxide]", "values": [
      {"measurement": "time to reach an equilibration point", "result": "about 20 hours"}
    ]}
  ]
}
